Measurements published in ChEMBL document CHEMBL5365481, “Design, Synthesis, and Activity Evaluation of Novel Dual-Target Inhibitors with Antifungal and Immunoregulatory Properties” (J Med Chem, 2023).
pIC50: −log10 of the molar value. In brackets after ≈: the same amount, converted by molar mass. Activity calls are given as the source filed them. The rule behind the calls is not given here.

Key:
Candida albicans [1] = experiment: Induction of apoptosis in Candida albicans ATCC SC5314 assessed as late apoptotic cells at 1 microM/ml incubated for 48 hrs by Hoechst 33258/PI staining based flow cytometry (Rvb= 0.05 +/- 0.01%); format: functional
Candida albicans [2] = experiment: Antifungal activity against Candida albicans ATCC SC5314 assessed as change in osmotic pressure at 1 microM/ml incubated for 48 hrs by absorbance based assay; format: functional, organism-based
[3] = target: T1, Lanosterol 14-alpha demethylase (Candida albicans (strain SC5314 / ATCC MYA-2876) (Yeast), UniProt P10613); experiment: Inhibition of Candida albicans ATCC SC5314 CYP51 using lanosterol as substrate incubated for 30 mins by HPLC assay
Candida albicans [4] = experiment: In vivo antifungal activity against Candida albicans ATCC SC5314 infected in BALB/c mouse assessed as decrease in IL-2 expression level at 10 ug, ip for 14 days by immunohistochemical analysis; format: functional, organism-based; details: dose 10.0 µg, time 14.0 day
Candida albicans [5] = experiment: Antifungal activity against fluconazole-resistant Candida albicans CaR assessed as inhibition of fungal growth incubated for 72 hrs by CLSI based liquid medium microdilution method; format: functional
Candida albicans [6] = experiment: Induction of apoptosis in Candida albicans ATCC SC5314 assessed as normal cells at 1 microM/ml incubated for 48 hrs by Hoechst 33258/PI staining based flow cytometry (Rvb= 94.8 +/- 0.3%); format: functional
[7] = Toxicity in BALB/c mouse infected with Candida albicans ATCC SC5314 assessed as plasma BUN level at 10 ug, ip for 14 days; format: organism-based; details: in vivo, 336 h, dose 10 µg, time 14 day
Candida albicans [8] = experiment: Induction of apoptosis in Candida albicans ATCC SC5314 assessed as increase in blue fluorescence intensity at 1 microM/ml incubated for 48 hrs by Hoechst 33258/PI staining based fluorescence microscopy; format: functional, organism-based
[9] = Toxicity in BALB/c mouse infected with Candida albicans ATCC SC5314 assessed as morphological changes in kidney at 10 ug, ip for 14 days by H and E staining based microscopy; format: organism-based; details: in vivo, 336 h, dose 10 µg, time 14 day
Candida albicans [10] = experiment: In vivo antifungal activity against Candida albicans ATCC SC5314 infected in BALB/c mouse assessed as decrease in IFN-gamma expression level at 10 ug, ip for 14 days by immunohistochemical analysis; format: functional, organism-based; details: dose 10.0 µg, time 14.0 day
[11] = target: T1, Lanosterol 14-alpha demethylase; experiment: Inhibition of Candida albicans ATCC SC5314 CYP51 assessed as other unknown sterol content at 4 ug/ml measured after 16 hrs by GC-MS analysis (Rvb= 3.82%); set-up: scale not given: the % may be the effect or the level left; details: at 4 µg/mL
Candida albicans [12] = experiment: Induction of mitochondrial membrane depolarization in Candida albicans ATCC SC5314 assessed as normal cells at 1 microM/ml incubated for 24 hrs by JC-1 staining based flow cytometry assay (reference value: 94.4 +/- 1.15%); format: functional
[13] = Toxicity in BALB/c mouse infected with Candida albicans ATCC SC5314 assessed as plasma AST level at 10 ug, ip for 14 days; format: organism-based; details: in vivo, 336 h, dose 10 µg, time 14 day
Candida albicans [14] = experiment: In vivo antifungal activity against Candida albicans ATCC SC5314 infected in BALB/c mouse assessed as decrease in PD-L1 expression level at 10 ug, ip for 14 days by Western blot analysis; format: functional, organism-based; details: dose 10.0 µg, time 14.0 day
Candida albicans [15] = experiment: In vivo antifungal activity against Candida albicans ATCC SC5314 infected in BALB/c mouse assessed as decrease in IFN-gamma expression level at 10 ug, ip for 14 days by Western blot analysis; format: functional, organism-based; details: dose 10.0 µg, time 14.0 day
Candida albicans [16] = experiment: In vivo antifungal activity against Candida albicans ATCC SC5314 infected in BALB/c mouse assessed as disappearance of nuclei aggregation at 10 ug, ip for 14 days by GMS staining based microscopy; format: functional, organism-based; details: dose 10.0 µg, time 14.0 day
Candida albicans [17] = experiment: Induction of mitochondrial membrane depolarization in Candida albicans ATCC SC5314 assessed as depolarized cells at 1 microM/ml incubated for 24 hrs by JC-1 staining based flow cytometry assay (reference value: 0.3 to 5.1%); format: functional
[18] = Toxicity in BALB/c mouse infected with Candida albicans ATCC SC5314 assessed as plasma ALT level at 10 ug, ip for 14 days; format: organism-based; details: in vivo, 336 h, dose 10 µg, time 14 day
Aspergillus fumigatus = experiment: Antifungal activity against Aspergillus fumigatus KM8001 assessed as inhibition of fungal growth incubated for 72 hrs by CLSI based liquid medium microdilution method; format: functional
Candida albicans [19] = experiment: Antifungal activity against fluconazole-resistant Candida albicans 904 assessed as inhibition of fungal growth incubated for 72 hrs by CLSI based liquid medium microdilution method; format: functional
Candida albicans [20] = experiment: In vivo antifungal activity against Candida albicans ATCC SC5314 infected in BALB/c mouse assessed as reversal of cell morphology to normal state at 10 ug, ip for 14 days by GMS staining based microscopy; format: functional, organism-based; details: dose 10.0 µg, time 14.0 day
Candida albicans [21] = experiment: Induction of apoptosis in Candida albicans ATCC SC5314 assessed as early apoptotic cells at 1 microM/ml incubated for 48 hrs by Hoechst 33258/PI staining based flow cytometry (Rvb= 5.1 +/- 0.3%); format: functional
Pichia kudriavzevii = experiment: Antifungal activity against Candida krusei ATCC 6258 assessed as inhibition of fungal growth incubated for 72 hrs by CLSI based liquid medium microdilution method; format: functional
Candida albicans [22] = experiment: Antifungal activity against fluconazole-resistant Candida albicans 632 assessed as inhibition of fungal growth incubated for 72 hrs by CLSI based liquid medium microdilution method; format: functional
[23] = Toxicity in BALB/c mouse infected with Candida albicans ATCC SC5314 assessed as morphological changes in lung at 10 ug, ip for 14 days by H and E staining based microscopy; format: organism-based; details: in vivo, 336 h, dose 10 µg, time 14 day
Candida albicans [24] = experiment: Antifungal activity against Candida albicans ATCC SC5314 assessed as inhibition of fungal growth incubated for 72 hrs by CLSI based liquid medium microdilution method; format: functional
Candida albicans [25] = experiment: Induction of ROS generation in Candida albicans ATCC SC5314 assessed as increase in fluorescence intensity at 1 microM/ml incubated for 48 hrs by fluorescent microscopy; format: functional, organism-based
Candida albicans [26] = experiment: In vivo antifungal activity against Candida albicans ATCC SC5314 infected in BALB/c mouse assessed as decrease in number of exogenous fungal cells at 10 ug, ip for 14 days by H and E staining based microscopy; format: functional, organism-based; details: dose 10.0 µg, time 14.0 day
Candida albicans [27] = experiment: In vivo antifungal activity against Candida albicans ATCC SC5314 infected in BALB/c mouse assessed as increase in body weight at 10 ug, ip for 14 days; format: functional, organism-based; details: dose 10.0 µg, time 14.0 day
Candida albicans [28] = experiment: Antifungal activity against fluconazole-resistant Candida albicans 17# assessed as inhibition of fungal growth incubated for 72 hrs by CLSI based liquid medium microdilution method; format: functional
Candida albicans [29] = experiment: In vivo antifungal activity against Candida albicans ATCC SC5314 infected in BALB/c mouse assessed as decrease in NLRP3 expression level at 10 ug, ip for 14 days by Western blot analysis; format: functional, organism-based; details: dose 10.0 µg, time 14.0 day
[30] = target: T1, Lanosterol 14-alpha demethylase; experiment: Inhibition of Candida albicans ATCC SC5314 CYP51 assessed as ergosterol content at 4 ug/ml measured after 16 hrs by GC-MS analysis (reference value: 92.71%); set-up: scale not given: the % may be the effect or the level left; details: at 4 µg/mL
Candida albicans [31] = experiment: Induction of mitochondrial membrane depolarization in Candida albicans ATCC SC5314 assessed as polarized cells at 1 microM/ml incubated for 24 hrs by JC-1 staining based flow cytometry assay (reference value: 0.28 +/- 0.02%); format: functional

T1 sequence (P10613 whole entry): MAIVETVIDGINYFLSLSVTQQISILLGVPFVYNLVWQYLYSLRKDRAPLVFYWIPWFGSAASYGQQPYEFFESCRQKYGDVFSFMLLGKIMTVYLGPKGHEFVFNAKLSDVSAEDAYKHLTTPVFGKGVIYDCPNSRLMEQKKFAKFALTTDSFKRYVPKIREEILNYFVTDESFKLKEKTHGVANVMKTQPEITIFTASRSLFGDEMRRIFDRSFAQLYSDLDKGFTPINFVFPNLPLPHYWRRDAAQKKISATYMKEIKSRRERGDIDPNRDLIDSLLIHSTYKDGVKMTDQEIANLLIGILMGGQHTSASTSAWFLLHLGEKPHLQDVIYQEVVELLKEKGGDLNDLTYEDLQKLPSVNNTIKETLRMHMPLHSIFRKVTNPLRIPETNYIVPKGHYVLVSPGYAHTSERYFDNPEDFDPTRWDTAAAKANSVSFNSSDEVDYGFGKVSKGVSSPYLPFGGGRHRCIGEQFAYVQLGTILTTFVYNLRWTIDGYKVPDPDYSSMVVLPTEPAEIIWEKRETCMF

| Compound | Activity (Candida albicans [1]) | Activity (Candida albicans [2]) | pIC50 [3] | Activity (Candida albicans [4]) | MIC50 (Candida albicans [5]) | Activity (Candida albicans [6]) | Activity [7] | Activity (Candida albicans [8]) | Activity [9] | Activity (Candida albicans [10]) | Activity [11] | Activity (Candida albicans [12]) | Activity [13] | Activity (Candida albicans [14]) | Activity (Candida albicans [15]) | Activity (Candida albicans [16]) | Activity (Candida albicans [17]) | Activity [18] | MIC50 (Aspergillus fumigatus) | MIC50 (Candida albicans [19]) | other results |
| --- | --- | --- | --- | --- | --- | --- | --- | --- | --- | --- | --- | --- | --- | --- | --- | --- | --- | --- | --- | --- | --- |
| OC(Cn1cncn1)(Cn1cncn1)c1ccc(F)cc1F [FLUCONAZOLE] | 0.07% | Active | 6.80 | Active | > 8 µg/mL | 44.6% | 24.2 mM | Active | Non-Toxic | Active | 5.58% | 65.4% | 79.7 IU/L | Active | Active | Active | 0.28% | 41.9 IU/L | > 8 µg/mL | > 8 µg/mL | Activity (Candida albicans [20]): Active; Activity (Candida albicans [21]): 55.3%; MIC50 (Pichia kudriavzevii): 1 µg/mL (≈ 3.27 µM); MIC50 (Candida albicans [22]): > 8 µg/mL; Activity [23]: Non-Toxic; MIC50 (Candida albicans [24]): 0.5 µg/mL (≈ 1.63 µM); Activity (Candida albicans [25]): Active; Activity (Candida albicans [26]): Active; Activity (Candida albicans [27]): Active; MIC50 (Candida albicans [28]): > 8 µg/mL; Activity (Candida albicans [29]): Active; Activity [30]: 17.84%; Activity (Candida albicans [31]): 0.39% |
| CC(=O)c1ccc(C(=O)N2CCC(NC(=O)c3nc(-n4cncn4)c4ccccc4n3)CC2)cc1 | 0.07% | Active | 6.58 | Active | 2 µg/mL (≈ 4.26 µM) | 42% | 17.9 mM | Active | Non-Toxic | Active | 5.74% | 42.6% | 54.9 IU/L | Active | Active | Active | 1.27% | 32.3 IU/L | 1 µg/mL (≈ 2.13 µM) | 2 µg/mL (≈ 4.26 µM) | Activity (Candida albicans [20]): Active; Activity (Candida albicans [21]): 57.9%; MIC50 (Pichia kudriavzevii): 0.25 µg/mL (≈ 0.532 µM); MIC50 (Candida albicans [22]): 1 µg/mL (≈ 2.13 µM); Activity [23]: Non-Toxic; MIC50 (Candida albicans [24]): 0.25 µg/mL (≈ 0.532 µM); Activity (Candida albicans [25]): Active; Activity (Candida albicans [26]): Active; Activity (Candida albicans [27]): Active; MIC50 (Candida albicans [28]): 1 µg/mL (≈ 2.13 µM); Activity (Candida albicans [29]): Active; Activity [30]: 18.64%; Activity (Candida albicans [31]): 0.62% |
| CC(C)c1ccc(C(=O)N2CCC(NC(=O)c3nc(-n4ccnc4)c4ccccc4n3)CC2)cc1 | 0.19% | Active | 6.69 | Active | 4 µg/mL (≈ 8.54 µM) | 45.3% | 20.2 mM | Active | Non-Toxic | Active | 5.58% | 52.3% | 66.8 IU/L | Active | Active | Active | 0.1% | 30.5 IU/L | 2 µg/mL (≈ 4.27 µM) | > 8 µg/mL | Activity (Candida albicans [20]): Active; Activity (Candida albicans [21]): 54.5%; MIC50 (Pichia kudriavzevii): 0.5 µg/mL (≈ 1.07 µM); MIC50 (Candida albicans [22]): 1 µg/mL (≈ 2.13 µM); Activity [23]: Non-Toxic; MIC50 (Candida albicans [24]): 0.25 µg/mL (≈ 0.534 µM); Activity (Candida albicans [25]): Active; Activity (Candida albicans [26]): Active; Activity (Candida albicans [27]): Active; MIC50 (Candida albicans [28]): 2 µg/mL (≈ 4.27 µM); Activity (Candida albicans [29]): Active; Activity [30]: 20.92%; Activity (Candida albicans [31]): 0.1% |
